Test results reported in patent US11096891B2, “Hybrid muco-adhesive delivery systems and use thereof” (TECHNION RESEARCH & DEVELOPMENT FOUNDATION LIMITED, priority 2016, dated 2021).
One block for each compound: values may come before it.

Experiments:
[1] = Release of fluorescent dye from alginate paste on porcine tongue under shear flow; assay type: physicochemical; details: after two hours, 0.01M PBS pH 6.8, 37° C.
Description: A home-made apparatus was designed, based on a flow cell for assessing the mucoadhesion of pastes and viscous polymer solutions under shear flow conditions. The experiment was set up by mixing viscous solution of alginate with the fluorescent dye solution, by that, the fluorescent dye was non-covalently attached to alginate. The pastes were spread on a slice of porcine tongue simulating the target tissue. The tissue holding the paste was placed in a vial and was subject to shear flow while immersed in PBS solution (see FIG. 1A).

[2] = Liposome release from alginate pastes spread on tongue tissue; assay type: physicochemical; details: 3% Ca+2-Ba+2 cross-linked alginate paste, simulated saliva buffer pH 6.8, 37° C.
Method: Alginate-fluorescein containing liposomes pastes were prepared by dissolving 30, 40 or 50 mg alginate-fluorescein in 0.4 mL DDW and 0.6 mL of fluorescently labeled liposome solution. The mixtures were stirred until homogenous viscous solutions were achieved. Alginate-fluorescein paste (50 μL) was spread on porcine's tongue tissue (1 cm×1 cm) which was glued with cyanoacrylate glue to a weight and placed in a vail with […] saliva buffer, pH 6.8. One sample (paste on a tissue) was inserted into dialysis bag and the absorbance of this sample was used as a blank. The vail was immersed in a shaking water/ethylene-glycole bath at 37° C. and 25 rpm. An aliquot (200 μL) of eluted liposome medium was removed for quantification; this volume was replaced with fresh buffer. The release of alginate-fluorescein and liposome was quantified by measuring the fluorescence (alginate-fluorescein: λex420 nm, λem530 nm, labeled liposome: λex530 nm, […]) of the release media at different time points.
pastes were prepared by dissolving 40 mg alginate or alginate-SH, or 300 mg alginate-PEGAc.
Alginate paste (50 μL) was spread on a piece of tissue which was glued with cyanoacrylte glue to a weight and placed in a vail with 10 ml 0.01M PBS, pH=6.8. […] An aliquot (200 μL) of eluted liposome medium was removed for quantification; this volume was replaced with fresh buffer. […]

CAL-27 cells [3] = test: CellTiter-Glo viability, alginate pastes on permeable tissue culture inserts; assay type: cell-based, human; details: alginate paste hybrid system
Method: In order to examine the effectivity of the proposed hybrid system, alginate pastes with empty liposomes, free drug and drugs loaded liposomes were tested for their effect on CAL-27 cells using permeable tissue culture inserts. Cell viability was determined using the Cell Titer-Glo® assay (see Table 6 below showing the relative cell viability obtained after 24 and 48 hr of treatment with hybrid system and FIG. 25).

CAL-27 cells [4] = test: MTT cell viability assay; assay type: cell-based, human; details: 24 and 48 hr
Method: The cytotoxicity of chemotherapeutic drugs to CAL-27 cells was determined using the MTT assay. Cells were plated in 96-well plate in density of 50,000 cells per well in a total volume of 200 μl medium. After 24 hours the cells were treated with different drugs and liposomes for 24 h and 48 h. All experiments were done in quadruplicates.
Cell viability was evaluated by MTT assay, a colorimetric assay based on the ability of viable cells to reduce a soluble yellow MTT substrate to a blue formazan crystal by mitochondrial succinate dehydrogenase activity of viable cells. This test is a good index of mitochondrial activity and thus of cell viability. After 24 or 48 hr of treatment, the medium was aspirated, and 100 μL of MTT, 1 mg/mL in PBS were added to each well. After MTT addition the plates were covered and returned to the incubator at 37° C. for 2 hr, the optimal time for formazan product formation. […] The absorbance was measured at 570 nm and the background absorbance measured at 690 nm.
In exemplary procedures, alginate gels incorporating either empty or doxorubicin loaded liposomes were prepared as described above, in a volume of 100 μL each with liposome proportion of 6.7%, 16.7% and 33.3% (v/v). […] Viability was measured using the MTT assay. […]

Release of fluorescent marker to external PBS solution [1]: completely released
Structure (SMILES): CCN(CC)c1ccc2c(-c3ccc(S(=O)(=O)O)cc3S(=O)(=O)[O-])c3ccc(=[N+](CC)CC)cc-3oc2c1 [fluorescent marker, sulforhodamine B]

Release of doxorubicin from cross-linked pastes [2]: similar, and sustained
Structure (SMILES): COc1cccc2c1C(=O)c1c(O)c3c(c(O)c1C2=O)C[C@@](O)(C(=O)CO)C[C@@H]3O[C@H]1C[C@H](N)[C@H](O)[C@H](C)O1 [Free Doxorubicin, doxorubicin]
Relative cell viability 24 h (CAL-27 cells [3]; 24 h): 0.04 ± 0.008
Relative cell viability 48 h (CAL-27 cells [3]; 48 h): 0.00 ± 0.000

Structure (SMILES): O=c1[nH]cc(F)c(=O)[nH]1 [5-FU free drug, 5-fluorouracil]
Toxicity to cancer cells, drug loaded liposomes versus free drug (CAL-27 cells [4]): slower in action and therefore seemed less efficient within the 48 hr experiment
